# Laboratory results as given in patent US6737383B1, “Herbicidal oxadiazolidines” (priority 1999, dated 2004).
# Key:
# deadnettle = test: Test E deadnettle; type: in vivo, Lamium amplexicaule; conditions: Postemergence, 0 to 100 scale
# Method in brief: (§1)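 For postemergence, plants at the 1- to 4-leaf stage, in a 60:40 mix of sandy loam and potting mix, treated with compound formulated in a surfactant-containing non-phytotoxic solvent. Visual assessment versus untreated controls followed roughly 21–28 days in the greenhouse.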
# Russian thistle [1] = test: Test E Russian thistle; type: in vivo, Salsola kali; conditions: Postemergence; for Plant response rating, Russian thistle: 0 to 100 scale
# Procedure: […] A mixture of sandy loam soil and greenhouse potting mix in a 60:40 ratio was used for the postemergence test.
# (§2) Plantings of these crops and weed species were adjusted to produce plants of appropriate size for the postemergence test. All plant species were grown using normal greenhouse practices. Crop and weed species include annual bluegrass (Poa annua), blackgrass (Alopecurus myosuroides), black nightshade (Solanum nigra), chickweed (Stellaria media), common poppy (Papaver rhoeas), deadnettle (Lamium amplexicaule), downy brome (Bromus tectorum), field violet (Viola arvensis), galium (Galium aparine), green foxtail (Setaria viridis), Italian ryegrass (Lolium multiflorum), jointed goatgrass (Aegilops cylindrica), kochia (Kochia scoparia), lambsquarters (Chenopodium album), littleseed canarygrass (Phalaris minor), rape (Brassica napus), redroot pigweed (Amaranthus retroflexus), Russian thistle (Salsola kali), scentless chamomile (Matricaria inodora), spring barley (Hordeum vulgare), sugar beet (Beta vulgaris), sunflower (Helianthus annuus), ivyleaf speedwell (Veronica hederaefolia), spring wheat (Triticum aestivum), winter wheat (Triticum aestivum), wild buckwheat (Polygonum convolvulus), wild mustard (Sinapis arvensis), wild oat (Avena fatua), windgrass (Apera spica-venti) and winter barley (Hordeum vulgare).
# (§3) Treated plants and untreated controls were maintained in a greenhouse for approximately 21 to 28 days, after which all treated plants were compared to untreated controls and visually evaluated. […] A dash response (-) means no test result.
# scentless chamomile [2] = test: Test E scentless chamomile; type: in vivo, Matricaria inodora; conditions: Postemergence; for Plant response rating, Scentless chamo: 0 to 100 scale
# Procedure: (§4) Compounds evaluated in this test were formulated in a non-phytotoxic solvent mixture which included a surfactant and applied to plants that were in the 1- to 4-leaf stage (postemergence application). A mixture of sandy loam soil and greenhouse potting mix in a 60:40 ratio was used for the postemergence test.
# as §2, §3
# spring barley [3] = test: Test E spring barley; type: in vivo, Hordeum vulgare; conditions: Postemergence; for Plant response rating, Spring Barley: 0 to 100 scale
# Procedure: as §4, §2, §3
# spring wheat [4] = test: Test E spring wheat; type: in vivo, Triticum aestivum; conditions: Postemergence; for Plant response rating, Spring Wheat: 0 to 100 scale
# Procedure: as §4, §2, §3
# wild oat = test: Test E wild oat; type: in vivo, Avena fatua; conditions: Postemergence; for Plant response rating, Wild oat: 0 to 100 scale
# Method in brief: as §1
# common ragweed = test: Test D common ragweed; type: in vivo, Ambrosia elatior; conditions: Postemergence, 0 to 100 scale
# common groundsel = test: Test D common groundsel; type: in vivo, Senecio vulgaris; conditions: Postemergence, 0 to 100 scale
# Johnson grass = test: Test D Johnson grass; type: in vivo, Sorghum halepense; conditions: Postemergence, 0 to 100 scale
# pitted morningglory = test: Test D pitted morningglory; type: in vivo, Ipomoea lacunosa; conditions: Postemergence, 0 to 100 scale
# purple nutsedge = test: Test D purple nutsedge; type: in vivo, Cyperus rotundus; conditions: Postemergence, 0 to 100 scale; for Purple nutsedge plant response rating: 0 no injury, 100 complete control
# tall mallow = test: Test D tall mallow; type: in vivo, Malva sylvestris; conditions: Postemergence, 0 to 100 scale; for Tall Mallow plant response rating: 0 no injury, 100 complete control
# annual bluegrass = test: Test E annual bluegrass; type: in vivo, Poa annua; conditions: Preemergence
# chickweed = test: Test E chickweed; type: in vivo, Stellaria media; conditions: Preemergence
# downy brome = test: Test E downy brome; type: in vivo, Bromus tectorum; conditions: Preemergence
# field violet = test: Test E field violet; type: in vivo, Viola arvensis; conditions: Preemergence
# rape = test: Test E rape; type: in vivo, Brassica napus; conditions: Preemergence
# Russian thistle [5] = test: Test E Russian thistle; type: in vivo, Salsola kali; conditions: Preemergence
# scentless chamomile [6] = test: Test E scentless chamomile; type: in vivo, Matricaria inodora; conditions: Preemergence
# spring barley [7] = test: Test E spring barley; type: in vivo, Hordeum vulgare; conditions: Preemergence
# sugar beet = test: Test E sugar beet; type: in vivo, Beta vulgaris; conditions: Preemergence
# sunflower = test: Test E sunflower; type: in vivo, Helianthus annuus; conditions: Preemergence
# spring wheat [8] = test: Test E spring wheat; type: in vivo, Triticum aestivum; conditions: Preemergence
# wild mustard = test: Test E wild mustard; type: in vivo, Sinapis arvensis; conditions: Preemergence
# [9] = Rate 500 g/ha, 0 no effect, 100 complete control
# [10] = Rate 250 g/ha, 0 to 100 scale where 0 is no effect and 100 is complete control
# [11] = Rate 64 g/ha, 0 no injury, 100 complete control
# [12] = Rate 125 g/ha, 0 no injury, 100 complete control
# [13] = Rate 125 g/ha, 0 to 100 scale (0 no effect, 100 complete control)
# [14] = Rate 500 g/ha, 0 to 100 scale where 0 is no effect and 100 is complete control
structure (smiles),measurement,setting,value
C=CCn1c(=O)on(C(=O)N(c2ccc(F)cc2)C(C)C)c1=O [Compound 146],"Plant response rating, Deadnettle",deadnettle; Rate 62 g/ha,50
same,"Plant response rating, Deadnettle",deadnettle; Rate 125 g/ha,10
same,"Plant response rating, Deadnettle",deadnettle; [9],20
same,"Plant response rating, Russian thistle",Russian thistle [1]; Rate 62 g/ha,20
same,"Plant response rating, Russian thistle",Russian thistle [1]; Rate 125 g/ha,0
same,"Plant response rating, Russian thistle",Russian thistle [1]; [9],0
same,Russian thistle plant response rating,Russian thistle [1]; [10],0
same,"Plant response rating, Scentless chamo",scentless chamomile [2]; Rate 62 g/ha,20
same,"Plant response rating, Scentless chamo",scentless chamomile [2]; Rate 125 g/ha,10
same,"Plant response rating, Scentless chamo",scentless chamomile [2]; [9],10
same,Scentless chamo plant response rating,scentless chamomile [2]; [10],10
same,"Plant response rating, Spring Barley",spring barley [3]; Rate 62 g/ha,20
same,"Plant response rating, Spring Barley",spring barley [3]; Rate 125 g/ha,10
same,"Plant response rating, Spring Barley",spring barley [3]; [9],20
same,Spring Barley plant response rating,spring barley [3]; [10],10
same,"Plant response rating, Spring Wheat",spring wheat [4]; Rate 62 g/ha,10
same,"Plant response rating, Spring Wheat",spring wheat [4]; Rate 125 g/ha,10
same,"Plant response rating, Spring Wheat",spring wheat [4]; [9],20
same,Spring Wheat plant response rating,spring wheat [4]; [10],10
same,"Plant response rating, Wild oat",wild oat; Rate 62 g/ha,20
same,"Plant response rating, Wild oat",wild oat; Rate 125 g/ha,5
same,"Plant response rating, Wild oat",wild oat; [9],10
same,Wild oat plant response rating,wild oat; [10],0
same,"Plant response rating, C. ragweed",common ragweed; [11],0
same,"Plant response rating, C. ragweed",common ragweed; [12],0
same,"Plant response rating, C. ragweed",common ragweed; Rate 250 g/ha,30
same,"Plant response rating, C. ragweed",common ragweed; Rate 500 g/ha,40
same,"Plant response rating, Com. groundsel",common groundsel; [11],0
same,"Plant response rating, Com. groundsel",common groundsel; [12],0
same,"Plant response rating, Com. groundsel",common groundsel; Rate 250 g/ha,0
same,"Plant response rating, Com. groundsel",common groundsel; Rate 500 g/ha,0
same,Plant response rating Johnsongrass,Johnson grass; [11],20
same,Plant response rating Johnsongrass,Johnson grass; [12],35
same,Plant response rating Johnsongrass,Johnson grass; Rate 250 g/ha,50
same,Plant response rating Johnsongrass,Johnson grass; Rate 500 g/ha,65
same,"Plant response rating, P. morninglory",pitted morningglory; [11],30
same,"Plant response rating, P. morninglory",pitted morningglory; [12],40
same,"Plant response rating, P. morninglory",pitted morningglory; Rate 250 g/ha,50
same,"Plant response rating, P. morninglory",pitted morningglory; Rate 500 g/ha,65
same,Purple nutsedge plant response rating,purple nutsedge; Rate 64 g/ha,0
same,Purple nutsedge plant response rating,purple nutsedge; Rate 125 g/ha,0
same,"Plant response rating, Purple nutsedge",purple nutsedge; Rate 250 g/ha,0
same,"Plant response rating, Purple nutsedge",purple nutsedge; Rate 500 g/ha,35
same,Tall Mallow plant response rating,tall mallow; Rate 64 g/ha,0
same,Tall Mallow plant response rating,tall mallow; Rate 125 g/ha,0
same,"Plant response rating, Tall Mallow",tall mallow; Rate 250 g/ha,0
same,"Plant response rating, Tall Mallow",tall mallow; Rate 500 g/ha,50
same,"Plant response rating, Annual bluegras",annual bluegrass; [13],60
same,Annual bluegras plant response rating (0 to 100 scale),annual bluegrass; Rate 250 g/ha,80
same,"Plant response rating, Annual bluegras",annual bluegrass; [14],90
same,"Plant response rating, Chickweed",chickweed; [13],30
same,Chickweed plant response rating (0 to 100 scale),chickweed; Rate 250 g/ha,80
same,"Plant response rating, Chickweed",chickweed; [14],70
same,"Plant response rating, Downy brome",downy brome; [13],60
same,Downy brome plant response rating (0 to 100 scale),downy brome; Rate 250 g/ha,0
same,"Plant response rating, Downy brome",downy brome; [14],60
same,"Plant response rating, Field violet",field violet; [13],10
same,Field violet plant response rating (0 to 100 scale),field violet; Rate 250 g/ha,30
same,"Plant response rating, Field violet",field violet; [14],50
same,"Plant response rating, Rape",rape; [13],60
same,Rape plant response rating (0 to 100 scale),rape; Rate 250 g/ha,80
same,"Plant response rating, Rape",rape; [14],60
same,"Plant response rating, Russian thistle",Russian thistle [5]; [13],0
same,Russian thistle plant response rating (0 to 100 scale),Russian thistle [5]; Rate 250 g/ha,0
same,"Plant response rating, Russian thistle",Russian thistle [5]; [14],10
same,"Plant response rating, Scentless chamo",scentless chamomile [6]; [13],15
same,Scentless chamo plant response rating (0 to 100 scale),scentless chamomile [6]; Rate 250 g/ha,100
same,"Plant response rating, Scentless chamo",scentless chamomile [6]; [14],80
same,"Plant response rating, Spring Barley",spring barley [7]; [13],20
same,Spring Barley plant response rating (0 to 100 scale),spring barley [7]; Rate 250 g/ha,10
same,"Plant response rating, Spring Barley",spring barley [7]; [14],90
same,"Plant response rating, Sugar beet",sugar beet; [13],60
same,Sugar beet plant response rating (0 to 100 scale),sugar beet; Rate 250 g/ha,60
same,"Plant response rating, Sugar beet",sugar beet; [14],80
same,"Plant response rating, Sunflower",sunflower; [13],20
same,Sunflower plant response rating (0 to 100 scale),sunflower; Rate 250 g/ha,30
same,"Plant response rating, Sunflower",sunflower; [14],30
same,"Plant response rating, Spring Wheat",spring wheat [8]; [13],50
same,Spring Wheat plant response rating (0 to 100 scale),spring wheat [8]; Rate 250 g/ha,80
same,"Plant response rating, Spring Wheat",spring wheat [8]; [14],100
same,"Plant response rating, Wild mustard",wild mustard; [13],60
same,Wild mustard plant response rating (0 to 100 scale),wild mustard; Rate 250 g/ha,95
same,"Plant response rating, Wild mustard",wild mustard; [14],100
CC(C)N(C(=O)n1oc(=O)n(C2CC2)c1=O)c1ccc(F)cc1F [Compound 299],"Plant response rating, C. ragweed",common ragweed; [11],100
same,"Plant response rating, C. ragweed",common ragweed; [12],50
same,"Plant response rating, C. ragweed",common ragweed; Rate 250 g/ha,100
same,"Plant response rating, C. ragweed",common ragweed; Rate 500 g/ha,100
same,"Plant response rating, Com. groundsel",common groundsel; [11],100
same,"Plant response rating, Com. groundsel",common groundsel; [12],100
same,"Plant response rating, Com. groundsel",common groundsel; Rate 250 g/ha,100
same,"Plant response rating, Com. groundsel",common groundsel; Rate 500 g/ha,100
same,Plant response rating Johnsongrass,Johnson grass; [11],0
same,Plant response rating Johnsongrass,Johnson grass; [12],60
same,Plant response rating Johnsongrass,Johnson grass; Rate 250 g/ha,100
same,Plant response rating Johnsongrass,Johnson grass; Rate 500 g/ha,100
same,"Plant response rating, P. morninglory",pitted morningglory; [11],0
same,"Plant response rating, P. morninglory",pitted morningglory; [12],0
same,"Plant response rating, P. morninglory",pitted morningglory; Rate 250 g/ha,0
same,"Plant response rating, P. morninglory",pitted morningglory; Rate 500 g/ha,0
same,Purple nutsedge plant response rating,purple nutsedge; Rate 64 g/ha,0
same,Purple nutsedge plant response rating,purple nutsedge; Rate 125 g/ha,0
same,"Plant response rating, Purple nutsedge",purple nutsedge; Rate 250 g/ha,0
same,"Plant response rating, Purple nutsedge",purple nutsedge; Rate 500 g/ha,100
same,Tall Mallow plant response rating,tall mallow; Rate 64 g/ha,30
same,Tall Mallow plant response rating,tall mallow; Rate 125 g/ha,90
same,"Plant response rating, Tall Mallow",tall mallow; Rate 250 g/ha,70
same,"Plant response rating, Tall Mallow",tall mallow; Rate 500 g/ha,100
